Assay results: patent publication US20240295544A1 (priority 2020, published 2024)

Test system: CMs

With `CC(C)C[C@H](NC(=O)[C@H](Cc1ccccc1)NC(=O)c1cnccn1)B(O)O` [bortezomib] the “fragmentation frequency and severity compared with SARS-CoV-2” value (human) was “much more infrequently and less severely than SARS-CoV-2” and the “induction of myofibril fragmentations in CMs” value (no virus, bortezomib only at high doses (1 uM and 10 uM tested), doxorubicin 20 nM and 200 nM (Table 1A)) was “induced myofibril fragmentations”.
